# Several values for one entry are separate records, joined by “and”; a condition that tells them apart may be missing. Identical values can stand only once. Like-named read-outs stand apart in the source and are kept apart here.
# Molecular target: human ATP synthase (Homo sapiens, UniProt P00846+P05496)
# Test: biochemical
# Assay type: biochemical
# Conditions: for cyanide sensitive ATP produced, nmol/min/mg / cyanide sensitive ATP produced, pmol/min/mg: 60 min
# [1] = BDQ 5e-6 uM, […], frozen human mito, BDQ in DMSO
# [2] = BDQ 5e-6 uM, cyanide sensitive, frozen human mito, BDQ in DMSO
# [3] = BDQ 5e-5 uM, […], frozen human mito, BDQ in DMSO
# [4] = BDQ 5e-5 uM, cyanide sensitive, frozen human mito, BDQ in DMSO
# [5] = BDQ 0.0005 uM, […], frozen human mito, BDQ in DMSO
# [6] = BDQ 0.0005 uM, cyanide sensitive, frozen human mito, BDQ in DMSO
# [7] = BDQ 0.0005 uM, cyanide sensitive, human
# [8] = BDQ 0.005 uM, […], frozen human mito, BDQ in DMSO
# [9] = BDQ 0.005 uM, cyanide sensitive, frozen human mito, BDQ in DMSO
# [10] = BDQ 0.005 uM, cyanide sensitive, human
# [11] = BDQ 0.05 uM, cyanide sensitive, human
# [12] = BDQ 0.1 uM, […], frozen human mito, BDQ in DMSO
# [13] = BDQ 0.1 uM, cyanide sensitive, frozen human mito, BDQ in DMSO
# [14] = BDQ 0.1 uM, cyanide sensitive, human
# [15] = BDQ 0.2 uM, […], frozen human mito, BDQ in DMSO
# [16] = BDQ 0.2 uM, cyanide sensitive, frozen human mito, BDQ in DMSO
# [17] = BDQ 0.2 uM, cyanide sensitive, human
# [18] = BDQ 0.5 uM, […], frozen human mito, BDQ in DMSO
# [19] = BDQ 0.5 uM, cyanide sensitive, frozen human mito, BDQ in DMSO
structure (smiles),measurement,setting,value
"COc1nc2ccc(Br)cc2cc1[C@@H](c1ccccc1)[C@@](O)(CCN(C)C)c1cccc2ccccc12 [BDQ, Bedaquiline]",ATP synthesis,,7.2 nmol/min/mg
same,inhibition at 0.85 µM,,46%
same,"% activity, cyanide sensitive",[1],78.2096%
same,"% inhibition, cyanide sensitive",[1],21.7904%
same,"ATP produced, nmol/min/mg",[1],6.85 nmol/min/mg
same,"ATP produced, pmol/min/mg",[1],6850.84 pmol/min/mg
same,"cyanide sensitive ATP produced, nmol/min/mg",[2],5.63 nmol/min/mg
same,"cyanide sensitive ATP produced, pmol/min/mg",[2],5632.76 pmol/min/mg
same,Cyanide sensitive ATP synthesis,"BDQ 5e-6 uM, cyanide sensitive, human",6.1 nmol/min/mg and 8.3 nmol/min/mg
same,"% activity, cyanide sensitive",[3],74.3127%
same,"% inhibition, cyanide sensitive",[3],25.6873%
same,"ATP produced, nmol/min/mg",[3],6.57 nmol/min/mg
same,"ATP produced, pmol/min/mg",[3],6570.19 pmol/min/mg
same,"cyanide sensitive ATP produced, nmol/min/mg",[4],5.35 nmol/min/mg
same,"cyanide sensitive ATP produced, pmol/min/mg",[4],5352.10 pmol/min/mg
same,Cyanide sensitive ATP synthesis,"BDQ 5e-5 uM, cyanide sensitive, human",5.6 nmol/min/mg and 8.1 nmol/min/mg
same,% activity,[5],84.5005%
same,% inhibition,[5],15.4995%
same,"ATP produced, nmol/min/mg",[5],7.12 nmol/min/mg
same,"ATP produced, pmol/min/mg",[5],7115.12 pmol/min/mg
same,activity at 0.0005 µM,"BDQ 0.0005 uM, […], frozen human mito, BDQ in DMSO, read-out: % activity",84.5%
same,activity at 0.0005 µM,"BDQ 0.0005 uM, […], frozen human mito, BDQ in DMSO, read-out: % activity, cyanide sensitive",81.9%
same,inhibition at 0.0005 µM,"BDQ 0.0005 uM, […], frozen human mito, BDQ in DMSO, read-out: % inhibition",15.5%
same,inhibition at 0.0005 µM,"BDQ 0.0005 uM, […], frozen human mito, BDQ in DMSO, read-out: % inhibition, cyanide sensitive",18.1%
same,"cyanide sensitive ATP produced, nmol/min/mg",[6],5.90 nmol/min/mg
same,"cyanide sensitive ATP produced, pmol/min/mg",[6],5897.03 pmol/min/mg
same,Cyanide sensitive ATP synthesis,[7],7.7 nmol/min/mg and 4.7 nmol/min/mg and 7.8 nmol/min/mg
same,cyanide sensitive % activity,[7],71.1%
same,activity at 0.0005 µM,"BDQ 0.0005 uM, cyanide sensitive, human, read-out: cyanide sensitive % activity",81.5%
same,inhibition at 0.0005 µM,"BDQ 0.0005 uM, cyanide sensitive, human, read-out: cyanide sensitive % inhibition",18.5%
same,% activity,[8],99.3902%
same,% inhibition,[8],0.6098%
same,"ATP produced, nmol/min/mg",[8],8.37 nmol/min/mg
same,"ATP produced, pmol/min/mg",[8],8368.87 pmol/min/mg
same,activity at 0.005 µM,"BDQ 0.005 uM, […], frozen human mito, BDQ in DMSO, read-out: % activity",99.4%
same,activity at 0.005 µM,"BDQ 0.005 uM, […], frozen human mito, BDQ in DMSO, read-out: % activity, cyanide sensitive",99.3%
same,inhibition at 0.005 µM,"BDQ 0.005 uM, […], frozen human mito, BDQ in DMSO, read-out: % inhibition",0.6%
same,inhibition at 0.005 µM,"BDQ 0.005 uM, […], frozen human mito, BDQ in DMSO, read-out: % inhibition, cyanide sensitive",0.713%
same,"cyanide sensitive ATP produced, nmol/min/mg",[9],7.15 nmol/min/mg
same,"cyanide sensitive ATP produced, pmol/min/mg",[9],7150.78 pmol/min/mg
same,Cyanide sensitive ATP synthesis,[10],8.3 nmol/min/mg and 4.6 nmol/min/mg and 7.9 nmol/min/mg
same,cyanide sensitive % activity,[10],72.3%
same,activity at 0.005 µM,"BDQ 0.005 uM, cyanide sensitive, human, read-out: cyanide sensitive % activity",88.5%
same,Cyanide sensitive ATP synthesis,[11],6.8 nmol/min/mg and 4.7 nmol/min/mg and 3.8 nmol/min/mg
same,cyanide sensitive % activity,[11],71.8% and 64.1% and 43.8%
same,cyanide sensitive % inhibition,[11],28.2% and 35.9% and 56.2%
same,% activity,[12],65.6953%
same,% inhibition,[12],34.3047%
same,"ATP produced, nmol/min/mg",[12],5.53 nmol/min/mg
same,"ATP produced, pmol/min/mg",[12],5531.68 pmol/min/mg
same,activity at 0.1 µM,"BDQ 0.1 uM, […], frozen human mito, BDQ in DMSO, read-out: % activity",65.7%
same,activity at 0.1 µM,"BDQ 0.1 uM, […], frozen human mito, BDQ in DMSO, read-out: % activity, cyanide sensitive",59.9%
same,inhibition at 0.1 µM,"BDQ 0.1 uM, […], frozen human mito, BDQ in DMSO, read-out: % inhibition",34.3%
same,inhibition at 0.1 µM,"BDQ 0.1 uM, […], frozen human mito, BDQ in DMSO, read-out: % inhibition, cyanide sensitive",40.1%
same,"cyanide sensitive ATP produced, nmol/min/mg",[13],4.31 nmol/min/mg
same,"cyanide sensitive ATP produced, pmol/min/mg",[13],4313.60 pmol/min/mg
same,Cyanide sensitive ATP synthesis,[14],8.1 nmol/min/mg and 6.1 nmol/min/mg and 5.4 nmol/min/mg and 6.3 nmol/min/mg and 7.4 nmol/min/mg
same,cyanide sensitive % activity,[14],86.0% and 84.3% and 62.0% and 71.2% and 67.2%
same,% activity,[15],69.7127%
same,% inhibition,[15],30.2873%
same,"ATP produced, nmol/min/mg",[15],5.87 nmol/min/mg
same,"ATP produced, pmol/min/mg",[15],5869.95 pmol/min/mg
same,activity at 0.2 µM,"BDQ 0.2 uM, […], frozen human mito, BDQ in DMSO, read-out: % activity",69.7%
same,activity at 0.2 µM,"BDQ 0.2 uM, […], frozen human mito, BDQ in DMSO, read-out: % activity, cyanide sensitive",64.6%
same,inhibition at 0.2 µM,"BDQ 0.2 uM, […], frozen human mito, BDQ in DMSO, read-out: % inhibition",30.3%
same,inhibition at 0.2 µM,"BDQ 0.2 uM, […], frozen human mito, BDQ in DMSO, read-out: % inhibition, cyanide sensitive",35.4%
same,"cyanide sensitive ATP produced, nmol/min/mg",[16],4.65 nmol/min/mg
same,"cyanide sensitive ATP produced, pmol/min/mg",[16],4651.87 pmol/min/mg
same,Cyanide sensitive ATP synthesis,[17],5.6 nmol/min/mg and 4.0 nmol/min/mg and 5.2 nmol/min/mg and 4.4 nmol/min/mg and 5.1 nmol/min/mg
same,cyanide sensitive % activity,[17],55.4% and 59.9% and 49.8% and 46.9%
same,cyanide sensitive % inhibition,[17],44.6% and 40.1% and 50.2% and 53.1%
same,activity at 0.2 µM,"BDQ 0.2 uM, cyanide sensitive, human, read-out: cyanide sensitive % activity",59.5%
same,inhibition at 0.2 µM,"BDQ 0.2 uM, cyanide sensitive, human, read-out: cyanide sensitive % inhibition",40.5%
same,% activity,[18],36.7347%
same,% inhibition,[18],63.2653%
same,"ATP produced, nmol/min/mg",[18],3.09 nmol/min/mg
same,"ATP produced, pmol/min/mg",[18],3093.14 pmol/min/mg
same,activity at 0.5 µM,"BDQ 0.5 uM, […], frozen human mito, BDQ in DMSO, read-out: % activity",36.7%
same,activity at 0.5 µM,"BDQ 0.5 uM, […], frozen human mito, BDQ in DMSO, read-out: % activity, cyanide sensitive",26%
same,inhibition at 0.5 µM,"BDQ 0.5 uM, […], frozen human mito, BDQ in DMSO, read-out: % inhibition",63.3%
same,inhibition at 0.5 µM,"BDQ 0.5 uM, […], frozen human mito, BDQ in DMSO, read-out: % inhibition, cyanide sensitive",74%
same,"cyanide sensitive ATP produced, nmol/min/mg",[19],1.88 nmol/min/mg
same,"cyanide sensitive ATP produced, pmol/min/mg",[19],1875.05 pmol/min/mg

# — PMC7438494 (Communications Biology, 2020)
